Test [1] concerns primary human mesenchymal stem cells (hMSCs). In words: Induction of chondrogenesis in human mesenchymal stem cells (nodule staining with Rhodamine B / Nile Red). Type of test: cell-based. Particulars: for Emax: TGF-β3 (10 ng/mL) as positive control, read-out: Max. Activity as % TGF-β3 activity; for EC50: concentration required to induce 50% levels of chondrogenesis vs TGF-β3, read-out: Conc (nM) of 50% TGF-β3 activity. The gist of the method: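 Primary hMSCs (passage 3–6) in incomplete chondrogenic induction medium were exposed 6 days at 37° C to compound (1:3 dilutions, 2700–10 nM in 96-well or 5000–2.2 nM in 384-well; 0.03% DMSO). Nodules stained with Rhodamine B/Nile Red were imaged; area normalized to DMSO wells for EC50, maximal activity and dose at maximum.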

Test [2] relates to Wnt activity (Sp5-Luc reporter, Wnt-responsive promoter) in SW480 colon carcinoma cells. Put plainly: Wnt activity screening assay: Sp5-Luc reporter gene assay in SW480 cells. Type of test: cell-based. Particulars: Homo sapiens, overnight incubation, 10-point curve starting from 10 μM. The gist of the method:
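Luminescence read-out (BrightGlo) from stable Sp5-Luc SW480 cells, normalized to DMSO-only wells. Cells were treated overnight at 37° C in 1% FBS medium across a 1:3, 10-point series starting at 10 μM. EC50 from variable-slope four-parameter regression; percent inhibition at 10 μM given where EC50 >10 μM.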

Take `CCC(=O)Nc1cncc(-c2ccc3[nH]nc(-c4nc5c(-c6cccc(F)c6)cccc5[nH]4)c3n2)c1` [Compound 1, N-(5-(3-(4-(3-Fluorophenyl)-1H-benzo[d]imidazol-2-yl)-1H-pyrazolo[4,3-b]pyridin-5-yl)pyridin-3-yl)propionamide]: the Emax in test [1] is 99%. The molecule further showed an EC50 in test [2] of 1.36 µM.
`CC(C)CC(=O)Nc1cncc(-c2ccc3[nH]nc(-c4nc5c(-c6cccc(F)c6)cccc5[nH]4)c3n2)c1` [Compound 2, N-(5-(3-(4-(3-Fluorophenyl)-1H-benzo[d]imidazol-2-yl)-1H-pyrazolo[4,3-b]pyridin-5-yl)pyridin-3-yl)-3-methylbutanamide]: in test [1], the Emax amounted to 57% and the EC50 was 21 nM. For the same molecule, the EC50 in test [2] was found to be 1.16 µM.
Take `CN(C)c1cncc(-c2ccc3[nH]nc(-c4nc5c(-c6cccc(F)c6)cccc5[nH]4)c3n2)c1` [Compound 7, 5-(3-(4-(3-fluorophenyl)-1H-benzo[d]imidazol-2-yl)-1H-pyrazolo[4,3-b]pyridin-5-yl)-N,N-dimethylpyridin-3-amine]: in test [1], the Emax was 53% and the EC50 amounted to 30 nM. In test [2], the EC50 amounted to 0.779 µM.
As to `CN(C)Cc1cncc(-c2ccc3[nH]nc(-c4nc5c(-c6cccc(F)c6)cccc5[nH]4)c3n2)c1` [Compound 13, 1-(5-(3-(4-(3-Fluorophenyl)-1H-benzo[d]imidazol-2-yl)-1H-pyrazolo[4,3-b]pyridin-5-yl)pyridin-3-yl)-N,N-dimethylmethanamine], in test [1], the Emax stood at 85% and the EC50 stood at 30 nM. The molecule also registered an EC50 in test [2] of 0.637 µM.
Molecule `O=C(Nc1cncc(-c2ccc3[nH]nc(-c4nc5c(-c6cccc(F)c6)cccc5[nH]4)c3n2)c1)C1CC1` [Compound 20, N-(5-(3-(4-(3-Fluorophenyl)-1H-benzo[d]imidazol-2-yl)-1H-pyrazolo[4,3-b]pyridin-5-yl)pyridin-3-yl)cyclopropanecarboxamide] returned an EC50 in test [2] of 1.08 µM.
Still for that read-out and setting: with `O=C(Nc1cncc(-c2ccc3[nH]nc(-c4nc5c(N6CCCCC6)cccc5[nH]4)c3n2)c1)C1CC1` [Compound 188, N-(5-(3-(4-(Piperidin-1-yl)-1H-benzo[d]imidazol-2-yl)-1H-pyrazolo[4,3-b]pyridin-5-yl)pyridin-3-yl)cyclopropanecarboxamide] the figure was 3.73 µM.
Still for that read-out and setting: with `FC1(F)CCN(Cc2cncc(-c3ccc4[nH]nc(-c5nc6c(N7CCCCC7)cccc6[nH]5)c4n3)c2)C1` [Compound 194, 5-(5-((3,3-Difluoropyrrolidin-1-yl)methyl)pyridin-3-yl)-3-(4-(piperidin-1-yl)-1H-benzo[d]imidazol-2-yl)-1H-pyrazolo[4,3-b]pyridine] the figure was 3.91 µM; with `CN1CCN(c2cccc3[nH]c(-c4n[nH]c5ccc(-c6cncc(NC(=O)C7CCCC7)c6)nc45)nc23)CC1` [Compound 246, N-(5-(3-(4-(4-Methylpiperazin-1-yl)-1H-benzo[d]imidazol-2-yl)-1H-pyrazolo [4,3-b]pyridin-5-yl)pyridin-3-yl)cyclopentanecarboxamide], 8.53 µM.
The same measure, in the same setting: with `CC(C)(C)CC(=O)Nc1cncc(-c2ccc3[nH]nc(-c4nc5ccccc5[nH]4)c3n2)c1` [Compound 268, N-(5-(3-(1H-Benzo[d]imidazol-2-yl)-1H-pyrazolo[4,3-b]pyridin-5-yl)pyridin-3-yl)-3,3-dimethylbutanamide] the figure was 3.55 µM; with `O=C(Nc1cncc(-c2ccc3[nH]nc(-c4nc5ccccc5[nH]4)c3n2)c1)C1CCCCC1` [Compound 275, N-(5-(3-(1H-Benzo[d]imidazol-2-yl)-1H-pyrazolo[4,3-b]pyridin-5-yl)pyridin-3-yl) cyclohexanecarboxamide], 1.98 µM; with `c1ccc(-c2ccc3[nH]nc(-c4nc5ccccc5[nH]4)c3n2)nc1` [Compound 280, 3-(1H-Benzo[d]imidazol-2-yl)-5-(pyridin-2-yl)-1H-pyrazolo[4,3-b]pyridine], 0.611 µM.
In test [2], `CCCC(=O)Nc1cncc(-c2ccc3[nH]nc(-c4nc5c(-c6ccsc6)cccc5[nH]4)c3n2)c1` [Compound 297, N-(5-(3-(4-(Thiophen-3-yl)-1H-benzo[d]imidazol-2-yl)-1H-pyrazolo[4,3-b]pyridin-5-yl)pyridin-3-yl)butyramide] gave an EC50 of 0.643 µM.
For `c1ccc(CNCc2cncc(-c3ccc4[nH]nc(-c5nc6c(-c7ccsc7)cccc6[nH]5)c4n3)c2)cc1` [Compound 304, N-Benzyl-1-(5-(3-(4-(thiophen-3-yl)-1H-benzo[d]imidazol-2-yl)-1H-pyrazolo[4,3-b]pyridin-5-yl)pyridin-3-yl)methanamine], the EC50 in test [2] was 2.76 µM.
Molecule `c1csc(-c2cccc3[nH]c(-c4n[nH]c5ccc(-c6ccncc6)nc45)nc23)c1` [Compound 354, 5-(Pyridin-4-yl)-3-(4-(thiophen-2-yl)-1H-benzo[d]imidazol-2-yl)-1H-pyrazolo[4,3-b]pyridine] gave an EC50 in test [2] of 3.77 µM.
Same read-out and setting: the result for `O=C(Nc1cncc(-c2ccc3[nH]nc(-c4nc5c(-c6cccs6)cccc5[nH]4)c3n2)c1)C1CC1` [Compound 356, N-(5-(3-(4-(Thiophen-2-yl)-1H-benzo[d]imidazol-2-yl)-1H-pyrazolo[4,3-b]pyridin-5-yl)pyridin-3-yl)cyclopropanecarboxamide] reads 3.38 µM; that for `CN(C)CCNc1cc(F)cc(-c2cccc3[nH]c(-c4n[nH]c5ccc(-c6cncc(CNCC7CCCC7)c6)nc45)nc23)c1` [Compound 473, N^1-(3-(2-(5-(5-(((Cyclopentylmethyl)amino)methyl)pyridin-3-yl)-1H-pyrazolo[4,3-b]pyridin-3-yl)-1H-benzo[d]imidazol-4-yl)-5-fluorophenyl)-N^2,N^2-dimethylethane-1,2-diamine], 2.82 µM; that for `CN(C)CCNc1cc(F)cc(-c2cccc3[nH]c(-c4n[nH]c5ccc(-c6ccccn6)nc45)nc23)c1` [Compound 476, N^1-(3-Fluoro-5-(2-(5-(pyridin-2-yl)-1H-pyrazolo[4,3-b]pyridin-3-yl)-1H-benzo[d]imidazol-4-yl)phenyl)-N^2,N^2-dimethylethane-1,2diamine], 1.49 µM.
On the same count and under the same terms, with `CS(=O)(=O)NCc1cc(F)cc(-c2cccc3[nH]c(-c4n[nH]c5ccc(-c6cncc(CNCc7ccccc7)c6)nc45)nc23)c1` [Compound 500, N-(3-(2-(5-(5-((Benzylamino)methyl)pyridin-3-yl)-1H-pyrazolo[4,3-b]pyridin-3-yl)-1H-benzo[d]imidazol-4-yl)-5-fluorobenzyl)methanesulfonamide] the figure was 2.34 µM.
As to `CS(=O)(=O)NCc1cc(F)cc(-c2cccc3[nH]c(-c4n[nH]c5ccc(-c6cncnc6)nc45)nc23)c1` [Compound 503, N-(3-Fluoro-5-(2-(5-(pyrimidin-5-yl)-1H-pyrazolo[4,3-b]pyridin-3-yl)-1H-benzo[d]imidazol-4-yl)benzyl)methanesulfonamide], the EC50 in test [2] was determined as 2.89 µM.
On the same count and under the same terms, the result for `Fc1cccc(-c2cccc3[nH]c(-c4n[nH]c5ccc(-c6cncc(OCCN7CCCC7)c6)nc45)nc23)c1` [Compound 514, 3-(4-(3-Fluorophenyl)-1H-benzo[d]imidazol-2-yl)-5-(5-(2-(pyrrolidin-1-yl)ethoxy)pyridin-3-yl)-1H-pyrazolo[4,3-b]pyridine] reads 1.17 µM; that for `c1cncc(-c2cccc3[nH]c(-c4n[nH]c5ccc(-c6cncc(OC7CCCCC7)c6)nc45)nc23)c1` [Compound 559, 5-(5-(Cyclohexyloxy)pyridin-3-yl)-3-(4-(pyridin-3-yl)-1H-benzo[d]imidazol-2-yl)-1H-pyrazolo[4,3-b]pyridine], 3.14 µM; that for `Oc1cncc(-c2ccc3[nH]nc(-c4nc5c(-c6cccnc6)cccc5[nH]4)c3n2)c1` [Compound 565, 5-(3-(4-(Pyridin-3-yl)-1H-benzo[d]imidazol-2-yl)-1H-pyrazolo[4,3-b]pyridin-5-yl)pyridin-3-ol], 1.45 µM.
On the same count and under the same terms, with `c1cc(N2CCCCC2)c2nc(-c3n[nH]c4ccc(-c5cncc(OCCN6CCCC6)c5)nc34)[nH]c2c1` [Compound 610, 3-(4-(Piperidin-1-yl)-1H-benzo[d]imidazol-2-yl)-5-(5-(2-(pyrrolidin-1-yl)ethoxy)pyridin-3-yl)-1H-pyrazolo[4,3-b]pyridine] the figure was 3.05 µM; with `COc1cncc(-c2ccc3[nH]nc(-c4nc5c(N6CCCCC6)cccc5[nH]4)c3n2)c1` [Compound 612, 5-(5-Methoxypyridin-3-yl)-3-(4-(piperidin-1-yl)-1H-benzo[d]imidazol-2-yl)-1H-pyrazolo[4,3-b]pyridine], 3.77 µM; with `Oc1cncc(-c2ccc3[nH]nc(-c4nc5c(N6CCCCC6)cccc5[nH]4)c3n2)c1` [Compound 613, 5-(3-(4-(Piperidin-1-yl)-1H-benzo[d]imidazol-2-yl)-1H-pyrazolo[4,3-b]pyridin-5-yl)pyridin-3-ol], 1.55 µM.
In test [2], `CN1CCN(c2cccc3[nH]c(-c4n[nH]c5ccc(-c6cncc(OC7CCCCC7)c6)nc45)nc23)CC1` [Compound 639, 5-(5-(Cyclohexyloxy)pyridin-3-yl)-3-(4-(4-methylpiperazin-1-yl)-1H-benzo [d]imidazol-2-yl)-1H-pyrazolo[4,3-b]pyridine] came in with an EC50 of 1.03 µM.
With `CN1CCN(c2cccc3[nH]c(-c4n[nH]c5ccc(-c6cncc(OCc7ccccc7)c6)nc45)nc23)CC1` [Compound 646, 5-(5-(Benzyloxy)pyridin-3-yl)-3-(4-(4-methylpiperazin-1-yl)-1H-benzo[d]imidazol-2-yl)-1H-pyrazolo[4,3-b]pyridine], the EC50 in test [2] stood at 1.06 µM.

The record behind these values is patent publication US10392383B2, “3-(1H-benzo[d]imidazol-2-yl)-1H-pyrazolo[4,3-b]pyridines and therapeutic uses thereof” (Samumed, LLC, priority 2015, dated 2019).
